Test results as given in patent publication US11629171B2, “Beta-hairpin peptidomimetics” (POLYPHOR AG, priority 2017, dated 2023).
≈ marks a conversion by molar mass, not a printed value. Where a SMILES comes first, the peptide text is derived from it. Bridges are numbered along the chain shown (N, C = ends). Roman numbers before positions name the chains, in order. [ ]: non-standard residue; d: D form. The star is where a group is joined. Tyrosinol = OC[C@H](Cc1ccc(O)cc1)N*; Thr(ol) = C[C@@H](O)[C@H](N)CO; Tle = CC(C)(C)[C@H](N)C(=O)O; Hiv = CC(C)[C@H](O)C(=O)O; dDab = NCC[C@@H](N)C(=O)O; hSer = N[C@@H](CCO)C(=O)O; NHCH(CH2OH)2 = OCC(CO)N*; Orn = NCCC[C@H](N)C(=O)O; Dab = NCC[C@H](N)C(=O)O; Dap = NC[C@H](N)C(=O)O

Experiments:
Assay type in all cases: cell-based
[1] = test system: human red blood cells (hRBC); test: Hemolysis; conditions: red cells of human, 1 h, 200
Summary of the method: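 Washed fresh human RBC (20% v/v) incubated with peptide at 200 μg/mL for 1 h at 37° C with shaking. Supernatant OD540 measured after dilution, blank corrected; percent hemolysis = OD540 peptide / OD540 of 2% Triton X-100 lysis × 100, PBS with 10% water as 0%.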

[2] = test system: Klebsiella pneumoniae SSI #3010; conditions: SSI #3010
Summary of the method: (§1)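 CLSI broth microdilution: inoculum ~10^6 CFU/mL in cation-adjusted Mueller-Hinton II broth, with peptide in serial two-fold dilutions plus Polysorbate 80 (0.002% final). MIC (μg/mL) is the lowest concentration without visible growth after 18-20 hours at 35° C.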

[3] = test system: Acinetobacter baumannii DSM 30008; conditions: DSM 30008
Summary of the method: as §1

[4] = test system: Acinetobacter baumannii 872842; conditions: 872842
Summary of the method: as §1

[5] = test system: Escherichia coli 926415; conditions: 926415
Summary of the method: as §1

[6] = test system: Klebsiella pneumoniae 968733; conditions: 968733
Summary of the method: as §1

[7] = test system: Escherichia coli ATCC 25922; conditions: ATCC 25922
Summary of the method: as §1

[8] = test system: Enterobacter cloacae 848840; conditions: 848840
Summary of the method: as §1

[9] = test system: Pseudomonas aeruginosa ATCC 27853; conditions: ATCC 27853
Summary of the method: as §1

| MIC [2] [µg/mL] | MIC [3] [µg/mL] | MIC [4] [µg/mL] | MIC [5] [µg/mL] | MIC [6] [µg/mL] | MIC [7] [µg/mL] | MIC [8] [µg/mL] | MIC [9] [µg/mL] | Compound | Hemolysis at 200 μg/mL [1] [%] |
| --- | --- | --- | --- | --- | --- | --- | --- | --- | --- |
| 0.125 (≈ 0.0515 µM) | 0.125 (≈ 0.0515 µM) | 0.125 (≈ 0.0515 µM) | 0.5 (≈ 0.206 µM) | 0.25 (≈ 0.103 µM) | 0.0625 (≈ 0.0257 µM) | 0.25 (≈ 0.103 µM) | 0.25 (≈ 0.103 µM) | CC(C)C[C@@H]1NC(=O)[C@@H](CC(C)C)NC(=O)[C@H](CCN)NC(=O)[C@@H](NC(=O)[C@H](CCN)NC(=O)[C@@H](NC(=O)[C@H](CCN)NC(=O)CC[C@@H]2NC(=O)[C@H](CN)NC(=O)[C@H](Cc3ccc(O)cc3)NC(=O)[C@@H](NC(=O)[C@@H](O)C(C)C)CSSC[C@@H](C(=O)N[C@H](CO)[C@@H](C)O)NC(=O)[C@H](C(C)(C)C)NC(=O)[C@H](CCC(=O)O)NC(=O)[C@H](Cc3c[nH]c4ccccc34)NC(=O)[C@H]([C@@H](C)O)NC(=O)[C@@H](CCN)NC2=O)[C@@H](C)O)CCNC(=O)[C@H]([C@@H](C)O)NC(=O)[C@H](CCN)NC(=O)[C@H](CCN)NC1=O [Ex. 90] (I: H-[Hiv]CY[Dap]E[dDab]TWE[Tle]C[Thr(ol)] / II: [Dab]T[Dab][Dab][Dab][dL]L[Dab][Dab]T; disulfide I:2-I:11; amide I:5-II:N; lactam II:4-II:C) | <1 |
| 0.0625 (≈ 0.0259 µM) | 0.125 (≈ 0.0518 µM) | 0.25 (≈ 0.104 µM) | 0.5 (≈ 0.207 µM) | 0.25 (≈ 0.104 µM) | 0.0625 (≈ 0.0259 µM) | 0.25 (≈ 0.104 µM) | 0.25 (≈ 0.104 µM) | CC(C)C[C@@H]1NC(=O)[C@@H](CC(C)C)NC(=O)[C@H](CCN)NC(=O)[C@@H](NC(=O)[C@H](CCN)NC(=O)[C@@H](NC(=O)[C@H](CCN)NC(=O)CC[C@@H]2NC(=O)[C@H](CCN)NC(=O)[C@H](Cc3ccc(O)cc3)NC(=O)[C@@H](NC(=O)[C@@H](O)C(C)C)CSSC[C@@H](C(=O)N[C@H](CO)[C@@H](C)O)NC(=O)[C@H](C(C)(C)C)NC(=O)[C@H](CCO)NC(=O)[C@H](Cc3c[nH]c4ccccc34)NC(=O)[C@H]([C@@H](C)O)NC(=O)[C@@H](CCN)NC2=O)[C@@H](C)O)CCNC(=O)[C@H]([C@@H](C)O)NC(=O)[C@H](CCN)NC(=O)[C@H](CCN)NC1=O [Ex. 82] (I: H-[Hiv]CY[Dab]E[dDab]TW[hSer][Tle]C[Thr(ol)] / II: [Dab]T[Dab][Dab][Dab][dL]L[Dab][Dab]T; disulfide I:2-I:11; amide I:5-II:N; lactam II:4-II:C) | <1 |
| 0.03125 (≈ 0.0129 µM) | 0.03125 (≈ 0.0129 µM) | 0.0625 (≈ 0.0257 µM) | 0.125 (≈ 0.0515 µM) | 0.25 (≈ 0.103 µM) | 0.03125 (≈ 0.0129 µM) | 0.125 (≈ 0.0515 µM) | 0.125 (≈ 0.0515 µM) | CC(=O)N[C@H](C(=O)N[C@H]1CSSC[C@@H](C(=O)N[C@H](C(N)=O)[C@@H](C)O)NC(=O)[C@H](C(C)(C)C)NC(=O)[C@H](CO)NC(=O)[C@H](Cc2c[nH]c3ccccc23)NC(=O)[C@H](CCN)NC(=O)[C@@H](CCN)NC(=O)[C@H](CCC(=O)N[C@@H](CCN)C(=O)N[C@H](C(=O)N[C@@H](CN)C(=O)N[C@H]2CCNC(=O)[C@H]([C@@H](C)O)NC(=O)[C@H](CCN)NC(=O)[C@H](CCN)NC(=O)[C@H]([C@@H](C)O)NC(=O)[C@@H](CC(C)C)NC(=O)[C@H](CCN)NC2=O)[C@@H](C)O)NC(=O)[C@H]([C@@H](C)O)NC(=O)[C@H](Cc2ccc(O)cc2)NC1=O)C(C)C [Ex. 263] (I: Ac-VCYTE[dDab][Dab]WS[Tle]CT-NH2 / II: [Dab]T[Dap][Dab][Dab][dL]T[Dab][Dab]T; disulfide I:2-I:11; amide I:5-II:N; lactam II:4-II:C) | 1 |
| 0.125 (≈ 0.0489 µM) | 0.125 (≈ 0.0489 µM) | 0.125 (≈ 0.0489 µM) | 1 (≈ 0.391 µM) | 1 (≈ 0.391 µM) | 0.125 (≈ 0.0489 µM) | 2 (≈ 0.782 µM) | 0.25 (≈ 0.0977 µM) | CC(C)C[C@@H]1NC(=O)[C@@H](CC(C)C)NC(=O)[C@H](CCN)NC(=O)[C@@H](NC(=O)[C@H](CCN)NC(=O)[C@@H](NC(=O)[C@H](CCN)NC(=O)CC[C@@H]2NC(=O)[C@H](CCN)NC(=O)[C@H](Cc3ccc(O)cc3)NC(=O)[C@@H](NC(=O)[C@@H](NC(=O)[C@H](N)CO)C(C)C)CSSC[C@@H](C(=O)N[C@@H](CO)C(=O)N[C@H](C)C(=O)O)NC(=O)[C@H](C(C)(C)C)NC(=O)[C@H](CO)NC(=O)[C@H](Cc3c[nH]c4ccccc34)NC(=O)[C@H]([C@@H](C)O)NC(=O)[C@@H](CCN)NC2=O)[C@@H](C)O)CCNC(=O)[C@H]([C@@H](C)O)NC(=O)[C@H](CCN)NC(=O)[C@H](CCN)NC1=O [Ex. 241] (I: H-[dS]VCY[Dab]E[dDab]TWS[Tle]CS[dA]-OH / II: [Dab]T[Dab][Dab][Dab][dL]L[Dab][Dab]T; disulfide I:3-I:12; amide I:6-II:N; lactam II:4-II:C) | <1 |
| 0.25 (≈ 0.102 µM) | 1 (≈ 0.41 µM) | 2 (≈ 0.819 µM) | 2 (≈ 0.819 µM) | 4 (≈ 1.64 µM) | 0.25 (≈ 0.102 µM) | 2 (≈ 0.819 µM) | 0.25 (≈ 0.102 µM) | CC(=O)N[C@H](C(=O)N[C@H]1CSSC[C@@H](C(=O)N[C@@H](CO)C(=O)O)NC(=O)[C@H](C(C)(C)C)NC(=O)[C@H](CO)NC(=O)[C@H](Cc2c[nH]c3ccccc23)NC(=O)[C@H]([C@@H](C)O)NC(=O)[C@@H](CCN)NC(=O)[C@H](CCC(=O)N[C@@H](CCN)C(=O)N[C@H](C(=O)N[C@@H](CCN)C(=O)N[C@H]2CCNC(=O)[C@H]([C@@H](C)O)NC(=O)[C@H](CCN)NC(=O)[C@H](CCN)NC(=O)[C@H](CC(C)C)NC(=O)[C@@H](CC(C)C)NC(=O)[C@H](CCN)NC2=O)[C@@H](C)O)NC(=O)[C@H](CCN)NC(=O)[C@H](Cc2ccc(O)cc2)NC1=O)C(C)C [Ex. 52] (I: Ac-VCY[Dab]E[dDab]TWS[Tle]CS-OH / II: [Dab]T[Dab][Dab][Dab][dL]L[Dab][Dab]T; disulfide I:2-I:11; amide I:5-II:N; lactam II:4-II:C) | <1 |

The next lines start with the compound.

| Compound | MIC [2] [µg/mL] | MIC [3] [µg/mL] | MIC [4] [µg/mL] | MIC [5] [µg/mL] | MIC [6] [µg/mL] | MIC [7] [µg/mL] | MIC [8] [µg/mL] | MIC [9] [µg/mL] | Hemolysis at 200 μg/mL [1] [%] |
| --- | --- | --- | --- | --- | --- | --- | --- | --- | --- |
| CC(C)C[C@@H]1NC(=O)[C@H](CCN)NC(=O)[C@H](CCN)NC(=O)[C@H](CC(C)C)NC(=O)[C@@H](CC(C)C)NC(=O)[C@H](CCN)NC(=O)[C@@H](NC(=O)[C@@H](CCN)NC(=O)CC[C@H]2NC(=O)[C@H](CCCN)NC(=O)[C@H](CCN)NC(=O)[C@H](Cc3ccc(O)cc3)NC(=O)[C@@H](NC(=O)[C@@H](O)C(C)C)CSSC[C@@H](C(=O)N[C@H](C(N)=O)[C@@H](C)O)NC(=O)[C@H](C(C)(C)C)NC(=O)[C@H](CO)NC(=O)[C@H](Cc3c[nH]c4ccccc34)NC(=O)[C@H]([C@@H](C)O)NC2=O)CCNC1=O [Ex. 165] (I: H-[Hiv]CY[Dab][Orn][dE]TWS[Tle]CT-NH2 / II: [dDab][Dab][Dab][dL]L[Dab][Dab]L; disulfide I:2-I:11; amide I:6-II:N; lactam II:2-II:C) | 0.25 (≈ 0.112 µM) | 1 (≈ 0.447 µM) | 1 (≈ 0.447 µM) | 0.125 (≈ 0.0558 µM) | 0.5 (≈ 0.223 µM) | 0.25 (≈ 0.112 µM) | 4 (≈ 1.79 µM) | 0.5 (≈ 0.223 µM) | <1 |
| CC(C)C[C@@H]1NC(=O)[C@@H](CC(C)C)NC(=O)[C@H](CCN)NC(=O)[C@@H](NC(=O)[C@H](CCN)NC(=O)[C@@H](NC(=O)[C@H](CCN)NC(=O)CC[C@@H]2NC(=O)[C@H](CCN)NC(=O)[C@H]([C@@H](C)O)NC(=O)[C@@H](NC(=O)[C@@H](O)C(C)C)CSSC[C@@H](C(=O)N[C@H](CO)Cc3ccc(O)cc3)NC(=O)[C@H](C(C)(C)C)NC(=O)[C@H](CO)NC(=O)[C@H](Cc3c[nH]c4ccccc34)NC(=O)[C@H](CCO)NC(=O)[C@@H](CCN)NC2=O)[C@@H](C)O)CCNC(=O)[C@H]([C@@H](C)O)NC(=O)[C@H](CCN)NC(=O)[C@H](CCN)NC1=O [Ex. 93] (I: H-[Hiv]CT[Dab]E[dDab][hSer]WS[Tle]C-Tyrosinol / II: [Dab]T[Dab][Dab][Dab][dL]L[Dab][Dab]T; disulfide I:2-I:11; amide I:5-II:N; lactam II:4-II:C) | 0.125 (≈ 0.0521 µM) | 0.25 (≈ 0.104 µM) | 0.5 (≈ 0.208 µM) | 0.25 (≈ 0.104 µM) | 0.5 (≈ 0.208 µM) | 0.125 (≈ 0.0521 µM) | 0.25 (≈ 0.104 µM) | 0.25 (≈ 0.104 µM) | <1 |
| CC(C)C[C@@H]1NC(=O)[C@@H](CC(C)C)NC(=O)[C@H](CCN)NC(=O)[C@@H](NC(=O)[C@H](CN)NC(=O)[C@@H](NC(=O)[C@H](CCN)NC(=O)CC[C@@H]2NC(=O)[C@@H](CCN)NC(=O)[C@H](CCCN)NC(=O)[C@H](CCN)NC(=O)[C@H](Cc3ccc(O)cc3)NC(=O)[C@@H](NC(=O)[C@@H](O)C(C)C)CSSC[C@@H](C(=O)NC(CO)CO)NC(=O)[C@H](C(C)(C)C)NC(=O)[C@H](CO)NC(=O)[C@H](Cc3c[nH]c4ccccc34)NC2=O)[C@@H](C)O)CCNC(=O)[C@H]([C@@H](C)O)NC(=O)[C@H](CCN)NC(=O)[C@H](CCN)NC1=O [Ex. 172] (I: H-[Hiv]CY[Dab][Orn][dDab]EWS[Tle]C-{NHCH(CH2OH)2} / II: [Dab]T[Dap][Dab][Dab][dL]L[Dab][Dab]T; disulfide I:2-I:11; amide I:7-II:N; lactam II:4-II:C) | 0.125 (≈ 0.0524 µM) | 0.125 (≈ 0.0524 µM) | 0.125 (≈ 0.0524 µM) | 0.25 (≈ 0.105 µM) | 0.5 (≈ 0.21 µM) | 0.125 (≈ 0.0524 µM) | 0.25 (≈ 0.105 µM) | 0.25 (≈ 0.105 µM) | <1 |
